According to publication PMC4912633, “Direct evidence of the molecular basis for biological silicon transport” (Nature Communications, 2016):

Key:
PtSIT1 [1] = biological target: T1, PtSIT1 (Phaeodactylum tricornutum, UniProt B7T1F4); test: biochemical
T1 construct: gene SIT1

PtSIT1 [2] = biological target: T2, PtSIT1 (Phaeodactylum tricornutum, UniProt B7T1F4, Q321A); test: biochemical
T2 construct: gene SIT1

PtSIT1 [3] = biological target: T3, PtSIT1 (Phaeodactylum tricornutum, UniProt B7T1F4, Q104A); test: biochemical
T3 construct: gene SIT1

purified protein = substrate: O[Si](O)(O)O; test: purified protein; settings: inward Na+ gradient (150 mM NaCl outside), valinomycin, 50 mM Tris, 150 mM KCl inside, pH 7.4, error s.e.m. of fit

T3 sequence (B7T1F4 1-512 Q104A): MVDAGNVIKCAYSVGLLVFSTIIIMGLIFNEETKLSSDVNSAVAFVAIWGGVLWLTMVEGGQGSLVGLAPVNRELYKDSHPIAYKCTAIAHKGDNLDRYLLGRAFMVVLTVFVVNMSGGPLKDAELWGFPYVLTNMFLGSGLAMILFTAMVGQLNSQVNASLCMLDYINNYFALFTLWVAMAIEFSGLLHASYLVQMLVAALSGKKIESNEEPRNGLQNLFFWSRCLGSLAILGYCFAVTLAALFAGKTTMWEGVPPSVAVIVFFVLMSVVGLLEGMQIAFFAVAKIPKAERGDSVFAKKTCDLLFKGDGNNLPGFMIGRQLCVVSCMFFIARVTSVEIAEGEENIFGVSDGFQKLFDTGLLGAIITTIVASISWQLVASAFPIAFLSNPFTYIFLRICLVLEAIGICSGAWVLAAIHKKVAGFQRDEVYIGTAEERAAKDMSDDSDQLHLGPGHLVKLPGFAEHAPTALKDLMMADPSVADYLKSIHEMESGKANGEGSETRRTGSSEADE
T2 sequence (B7T1F4 1-512 Q321A): as the sequence (B7T1F4 1-512 Q104A) above, with A104Q, Q321A counted along it

Molecule: O[Si](O)(O)O [silicic acid]
- Kd (PtSIT1 [1]): 2.9 ± 2.3 µM
- Kd (PtSIT1 [2]): 13.3 ± 8 µM
- Kd (PtSIT1 [3]): 25.5 ± 11 µM

B1: PtSIT1 (Phaeodactylum tricornutum) (protein)
chain: MVDAGNVIKCAYSVGLLVFSTIIIMGLIFNEETKLSSDVNSAVAFVAIWGGVLWLTMVEGGQGSLVGLAPVNRELYKDSHPIAYKCTAIAHKGDNLDRYLLGRQFMVVLTVFVVNMSGGPLKDAELWGFPYVLTNMFLGSGLAMILFTAMVGQLNSQVNASLCMLDYINNYFALFTLWVAMAIEFSGLLHASYLVQMLVAALSGKKIESNEEPRNGLQNLFFWSRCLGSLAILGYCFAVTLAALFAGKTTMWEGVPPSVAVIVFFVLMSVVGLLEGMQIAFFAVAKIPKAERGDSVFAKKTCDLLFKGDGNNLPGFMIGRQLCVVSCMFFIARVTSVEIAEGEENIFGVSDGFQKLFDTGLLGAIITTIVASISWQLVASAFPIAFLSNPFTYIFLRICLVLEAIGICSGAWVLAAIHKKVAGFQRDEVYIGTAEERAAKDMSDDSDQLHLGPGHLVKLPGFAEHAPTALKDLMMADPSVADYLKSIHEMESGKANGEGSETRRTGSSEADE
- Km (purified protein): 19.1 ± 4.5 µM
